In publication PMC7774954, “Interactomic affinity profiling by holdup assay: Acetylation and distal residues impact the PDZome-binding specificity of PTEN phosphatase” (PLoS ONE, 2020):
*1 amine or outer side, *2 acyl side, *3 side chain or, on linkers, in order; H or OH if unused. Where a SMILES comes first, the peptide text is derived from it. The star is where a group is joined. X1 = O=C(CCCC[C@@H]1SC[C@@H]2NC(=O)N[C@@H]21)NCCCOCCOCCOCCCN*; Suc = O=C(CCC(=O)[*:2])[*:1]

Tests used:
LNX2-3 = test: Holdup assay, LNX2-3; type: binding, human
GORASP2-1 = GORASP2-1 (Homo sapiens, UniProt Q9H8Y8); test: Holdup assay, GORASP2-1; type: binding
APBA2-2 = test: Holdup assay, APBA2-2; type: binding, human
DFNB31-2 = test: Holdup assay, DFNB31-2; type: binding, human
FRMPD2-3 = test: Holdup assay, FRMPD2-3; type: binding, human
DLG1 PDZ 2 = molecular target: T1, DLG1 PDZ 2 (Homo sapiens, UniProt Q12959); test: Holdup assay, DLG1-2; type: binding; conditions: for BI: DLG1-2
T1 construct: made in house; host or cells: E. coli
T1 sequence (Q12959 319-405 limits assumed): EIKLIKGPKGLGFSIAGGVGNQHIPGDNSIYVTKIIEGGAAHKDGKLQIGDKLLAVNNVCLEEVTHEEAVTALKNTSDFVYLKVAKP
Experimental: (§1) The holdup assay was performed on a Tecan freedom Evo200 robot with 384-well plates in singlicate for the three 11-mer PTEN variants and the 13-mer PTEN peptide as described in [31, 32]. Briefly, prior to interaction assay, 2.5 μL of streptavidin resin was saturated in each well with 20 μL of biotinylated PBM peptides (42 μM) and then washed twice with an excess of free biotin, while the reference resin was incubated only with biotin. Right before the holdup experiment, the PDZ library was spiked with an internal standard of lysozyme. Then, the biotin- or PBM-saturated resin was incubated, each in a distinct well of a 384-well plate, with complete cell lysates diluted so that the concentration of the tag-PDZ present in the crude extract is adjusted at 4 μM. After a sufficient time to reach complex equilibrium (15 min.), a fast and mild filtration step is performed and the tag-PDZ concentrations were measured by capillary electrophoresis instrument (LabChip GXII, PerkinElmer, Massachusets, USA). Standard markers were used to convert migration time into molecular weight on the LabChip software and inappropriate molecular weight markers were corrected or excluded.
(§2) For filtered data, the BI was extracted with the following equation (Eq 1) that estimates the depleted fraction after superimposition of the sample and reference electropherograms: BI=Iref−Ilig/Iref (1) where Iref and Ilig are the intensities of the tag-PDZ peaks measured, for each PDZ domain/PBM peptide interaction pair, in the biotin reference and the PBM electropherograms, respectively.
(§3) BIs were transformed into dissociation constants (KD) using the following formula: KD=([PDZtot]−BI·[PDZtot])·([PBMtot]−BI·[PDZtot])/BI·[PDZtot] (2) where [PDZtot] and [PBMtot] correspond to the total concentrations of the PDZ domain (usually around 4 μM) and the PBM peptide used during the assay. Since the PBMtot concentration in the resin during the holdup assay parameter may differ from one peptide to another and remains unknown, it is impossible to directly convert BI values into KD constants. We systematically determined the KD constants for a subset of PDZ/PBM pairs by competitive FP. […] For each PBM, the average peptide concentration was calculated after outlier rejection based on the absolute distances from the median as compared to three times the standard deviation (3σ rule), with never more than 2 values rejected.

LIN7B-1 = test: Holdup assay, LIN7B-1; type: binding, human
GIPC2-1 = molecular target: T2, GIPC2-1 (Homo sapiens, UniProt Q8TF65); test: Holdup assay, GIPC2-1; type: binding
T2 sequence (Q8TF65 1-315): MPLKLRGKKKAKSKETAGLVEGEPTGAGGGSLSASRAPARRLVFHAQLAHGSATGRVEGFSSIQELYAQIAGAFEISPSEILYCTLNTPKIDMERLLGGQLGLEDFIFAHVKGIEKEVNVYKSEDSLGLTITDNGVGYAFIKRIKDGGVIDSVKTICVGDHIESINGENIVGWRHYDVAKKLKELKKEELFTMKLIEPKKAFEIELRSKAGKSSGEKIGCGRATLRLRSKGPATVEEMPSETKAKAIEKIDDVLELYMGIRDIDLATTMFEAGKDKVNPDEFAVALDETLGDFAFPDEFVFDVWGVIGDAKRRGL

DLG2-2 = DLG2-2 (Homo sapiens, UniProt Q15700); test: Holdup assay, DLG2-2; type: binding
DLG2-2, sequence (Q15700 193-280): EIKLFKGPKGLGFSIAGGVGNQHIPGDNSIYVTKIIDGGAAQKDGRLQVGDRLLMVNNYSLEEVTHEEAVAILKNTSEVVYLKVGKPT

ARHGAP23-1 = test: Holdup assay, ARHGAP23-1; type: binding, human
LIMK1-1 = test: Holdup assay, LIMK1-1; type: binding, human
INTU-1 = test: Holdup assay, INTU-1; type: binding, human
GRID2IP-1 = test: Holdup assay, GRID2IP-1; type: binding, human
APBA3-1 = test: Holdup assay, APBA3-1; type: binding, human
SDCBP PDZ 1 = molecular target: T3, SDCBP PDZ 1 (Homo sapiens, UniProt O00560); test: Holdup assay, SDCBP-1; type: binding; conditions: PDZ domain SDCBP-1
T3 construct: made in house; host or cells: E. coli
T3 sequence (O00560 114-193 limits assumed): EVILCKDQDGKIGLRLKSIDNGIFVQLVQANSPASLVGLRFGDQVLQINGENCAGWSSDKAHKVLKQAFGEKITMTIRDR
Experimental: as §1, §2, §3

CARD14-1 = test: Holdup assay, CARD14-1; type: binding, human
GRIP1-6 = test: Holdup assay, GRIP1-6; type: binding, human
CARD11-1 = test: Holdup assay, CARD11-1; type: binding, human
INADL-10 = test: Holdup assay, INADL-10; type: binding, human
MAGI2-5 = MAGI2-5 (Homo sapiens, UniProt Q86UL8); test: Holdup assay, MAGI2-5; type: binding
MAGI2-5, sequence (Q86UL8 whole entry): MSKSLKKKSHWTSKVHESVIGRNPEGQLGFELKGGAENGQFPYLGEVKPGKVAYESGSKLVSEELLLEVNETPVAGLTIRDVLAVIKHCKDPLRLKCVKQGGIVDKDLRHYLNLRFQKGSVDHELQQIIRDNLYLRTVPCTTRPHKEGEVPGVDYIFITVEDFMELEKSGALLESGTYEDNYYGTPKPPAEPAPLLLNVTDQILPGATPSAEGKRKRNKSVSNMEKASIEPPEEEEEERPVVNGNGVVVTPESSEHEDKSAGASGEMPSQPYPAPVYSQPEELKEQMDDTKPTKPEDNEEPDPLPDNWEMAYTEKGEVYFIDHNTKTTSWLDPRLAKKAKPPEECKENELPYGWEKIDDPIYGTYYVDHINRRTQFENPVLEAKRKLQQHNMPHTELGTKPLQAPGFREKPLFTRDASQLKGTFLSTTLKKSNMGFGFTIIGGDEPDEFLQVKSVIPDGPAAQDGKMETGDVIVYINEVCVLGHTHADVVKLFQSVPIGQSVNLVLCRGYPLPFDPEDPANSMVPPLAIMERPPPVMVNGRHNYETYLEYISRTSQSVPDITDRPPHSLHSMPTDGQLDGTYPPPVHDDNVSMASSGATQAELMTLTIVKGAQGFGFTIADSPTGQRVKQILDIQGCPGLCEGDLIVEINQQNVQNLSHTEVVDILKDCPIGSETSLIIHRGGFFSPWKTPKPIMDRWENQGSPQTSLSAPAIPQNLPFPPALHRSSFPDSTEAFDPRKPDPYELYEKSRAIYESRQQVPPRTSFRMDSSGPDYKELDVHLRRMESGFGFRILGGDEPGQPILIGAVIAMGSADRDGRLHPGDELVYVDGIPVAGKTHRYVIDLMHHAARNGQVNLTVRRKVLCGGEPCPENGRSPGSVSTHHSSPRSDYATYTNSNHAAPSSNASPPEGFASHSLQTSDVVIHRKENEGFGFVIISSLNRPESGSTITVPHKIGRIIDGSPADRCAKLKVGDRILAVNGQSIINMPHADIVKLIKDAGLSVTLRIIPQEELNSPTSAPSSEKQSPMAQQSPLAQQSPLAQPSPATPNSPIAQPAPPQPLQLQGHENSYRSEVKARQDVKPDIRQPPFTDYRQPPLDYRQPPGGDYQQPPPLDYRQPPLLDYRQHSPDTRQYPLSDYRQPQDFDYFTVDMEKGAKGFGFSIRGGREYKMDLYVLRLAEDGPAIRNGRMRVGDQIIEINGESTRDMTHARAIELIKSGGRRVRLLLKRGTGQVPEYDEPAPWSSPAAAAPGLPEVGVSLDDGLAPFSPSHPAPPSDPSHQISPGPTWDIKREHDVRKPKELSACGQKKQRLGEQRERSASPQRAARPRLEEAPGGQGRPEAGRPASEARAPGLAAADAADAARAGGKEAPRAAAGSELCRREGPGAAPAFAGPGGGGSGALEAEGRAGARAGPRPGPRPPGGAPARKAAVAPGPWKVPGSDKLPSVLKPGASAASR

DVL2-1 = test: Holdup assay, DVL2-1; type: binding, human
INADL-4 = test: Holdup assay, INADL-4; type: binding, human
DLG4 PDZ 3 = molecular target: T4, DLG4 PDZ 3 (Homo sapiens, UniProt P78352); test: Holdup assay, DLG4-3; type: binding
T4 construct: made in house; host or cells: E. coli
T4 sequence (P78352 313-393 limits assumed): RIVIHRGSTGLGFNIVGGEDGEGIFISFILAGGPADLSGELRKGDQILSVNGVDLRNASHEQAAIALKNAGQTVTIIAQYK
Experimental: as §1, §2, §3

MAGI1 PDZ 2 = molecular target: T5, MAGI1 PDZ 2 (Homo sapiens, UniProt Q96QZ7); test: Holdup assay, MAGI1-2; type: binding
T5 construct: made in house; host or cells: E. coli
T5 sequence (Q96QZ7 472-554 limits assumed): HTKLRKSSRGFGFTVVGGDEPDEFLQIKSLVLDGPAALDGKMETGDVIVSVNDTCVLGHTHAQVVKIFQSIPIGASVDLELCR
Experimental: as §1, §2
BIs were transformed into dissociation constants (KD) using the following formula: KD=([PDZtot]−BI·[PDZtot])·([PBMtot]−BI·[PDZtot])/BI·[PDZtot] […] We systematically determined the KD constants for a subset of PDZ/PBM pairs by competitive FP. […] For each PBM, the average peptide concentration was calculated after outlier rejection based on the absolute distances from the median as compared to three times the standard deviation (3σ rule), with never more than 2 values rejected.

## CC[C@H](C)[C@H](NC(=O)[C@H](CCC(N)=O)NC(=O)[C@@H](NC(=O)[C@H](Cc1c[nH]cn1)NC(=O)[C@H](CCC(N)=O)NC(=O)[C@H](CC(=O)O)NC(=O)[C@H](CCC(=O)O)NC(=O)[C@H](CC(=O)O)NC(=O)CCC(=O)NCCCOCCOCCOCCCNC(=O)CCCC[C@@H]1SC[C@@H]2NC(=O)N[C@@H]21)[C@@H](C)O)C(=O)N[C@H](C(=O)N[C@@H](CCCNC(=N)N)C(=O)N[C@H](C(=O)O)C(C)C)[C@@H](C)O [PTEN_KR] ({X1-Suc}-DEDQHTQITRV-OH)
LNX2-3
  BI: 0.021
  LogKD: 3.655
GORASP2-1
  Kd: 16 µM
GORASP2-1; GORASP2-1
  BI: 0.586
APBA2-2
  BI: -0.002
  LogKD: 3.655
DFNB31-2
  BI: -0.046
  LogKD: 3.655
FRMPD2-3
  BI: -0.067
  LogKD: 3.655
DLG1 PDZ 2
  Kd: 70.8 µM
  BI: 0.253
LIN7B-1
  BI: -0.078
  LogKD: 3.655
GIPC2-1
  LogKD: 3.655
DLG2-2
  BI: 0.312
  Kd: 52.4 µM
ARHGAP23-1
  BI: -0.018
  LogKD: 3.655
LIMK1-1
  BI: -0.08
  LogKD: 3.655
INTU-1
  BI: -0.043
  LogKD: 3.655
GRID2IP-1
  BI: -0.033
  LogKD: 3.655
APBA3-1
  BI: -0.056
  LogKD: 3.655
SDCBP PDZ 1
  BI: -0.006
CARD14-1
  BI: -0.077
  LogKD: 3.655
GRIP1-6
  BI: 0.038
  LogKD: 3.655
CARD11-1
  BI: -0.097
  LogKD: 3.655
INADL-10
  BI: 0.019
  LogKD: 3.655
MAGI2-5
  BI: -0.074
  LogKD: 3.655
DVL2-1
  BI: -0.027
  LogKD: 3.655
INADL-4
  BI: -0.04
  LogKD: 3.655
DLG4 PDZ 3
  BI: 0.043

## CC[C@H](C)[C@H](NC(=O)[C@H](CCC(N)=O)NC(=O)[C@@H](NC(=O)[C@H](Cc1c[nH]cn1)NC(=O)[C@H](CCC(N)=O)NC(=O)[C@H](CC(=O)O)NC(=O)[C@H](CCC(=O)O)NC(=O)[C@H](CC(=O)O)NC(=O)[C@H](Cc1ccccc1)NC(=O)[C@@H]1CCCN1C(=O)CCC(=O)NCCCOCCOCCOCCCNC(=O)CCCC[C@@H]1SC[C@@H]2NC(=O)N[C@@H]21)[C@@H](C)O)C(=O)N[C@H](C(=O)N[C@@H](CCCCN)C(=O)N[C@H](C(=O)O)C(C)C)[C@@H](C)O [PTEN_13] ({X1-Suc}-PFDEDQHTQITKV-OH)
LNX2-3
  BI: -0.083
GORASP2-1; GORASP2-1
  BI: 0.092
  LogKD: 3.826
APBA2-2
  BI: 0.041
DFNB31-2
  BI: 0.036
FRMPD2-3
  BI: -0.027
DLG1 PDZ 2
  BI: 0.168
LIN7B-1
  BI: -0.079
MAGI1 PDZ 2
  BI: -0.017
GIPC2-1
  BI: -0.087
DLG2-2
  BI: 0.054
  LogKD: 3.826
ARHGAP23-1
  BI: -0.062
LIMK1-1
  BI: -0.103
INTU-1
  BI: -0.039
GRID2IP-1
  BI: 0.044
APBA3-1
  BI: 0.015
SDCBP PDZ 1
  BI: 0.009
CARD14-1
  BI: -0.001
GRIP1-6
  BI: 0.004
CARD11-1
  BI: -0.006
INADL-10
  BI: -0.05
MAGI2-5
  BI: 0.046
  LogKD: 3.826
DVL2-1
  BI: -0.026
INADL-4
  BI: -0.084
DLG4 PDZ 3
  BI: -0.097
